Test results reported in US9365588B2, “Benzoxazines as modulators of ion channels” (Vertex Pharmaceuticals Incorporated, priority 2011, dated 2016).

Molecular target: human NaV 1.7 (Homo sapiens, UniProt Q15858)
Assay: E-VIPR optical membrane potential assay with electrical stimulation
Type: cell-based
Conditions: sodium channel inhibition; read-out: Binned Activity Data (IC50)
Method in brief: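 Membrane-potential read-out: background-subtracted 460 nm/580 nm ratio during a 9 s current-controlled stimulus, 400 Hz scan. Before stimulation, NaV1.7-HEK cells carried coumarin/oxonol dye and compound (final DMSO 0.625%) for 20–35 min at room temperature; tetracaine 125 μM served as positive control.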

human NaV 1.7, sequence (Q15858 whole entry): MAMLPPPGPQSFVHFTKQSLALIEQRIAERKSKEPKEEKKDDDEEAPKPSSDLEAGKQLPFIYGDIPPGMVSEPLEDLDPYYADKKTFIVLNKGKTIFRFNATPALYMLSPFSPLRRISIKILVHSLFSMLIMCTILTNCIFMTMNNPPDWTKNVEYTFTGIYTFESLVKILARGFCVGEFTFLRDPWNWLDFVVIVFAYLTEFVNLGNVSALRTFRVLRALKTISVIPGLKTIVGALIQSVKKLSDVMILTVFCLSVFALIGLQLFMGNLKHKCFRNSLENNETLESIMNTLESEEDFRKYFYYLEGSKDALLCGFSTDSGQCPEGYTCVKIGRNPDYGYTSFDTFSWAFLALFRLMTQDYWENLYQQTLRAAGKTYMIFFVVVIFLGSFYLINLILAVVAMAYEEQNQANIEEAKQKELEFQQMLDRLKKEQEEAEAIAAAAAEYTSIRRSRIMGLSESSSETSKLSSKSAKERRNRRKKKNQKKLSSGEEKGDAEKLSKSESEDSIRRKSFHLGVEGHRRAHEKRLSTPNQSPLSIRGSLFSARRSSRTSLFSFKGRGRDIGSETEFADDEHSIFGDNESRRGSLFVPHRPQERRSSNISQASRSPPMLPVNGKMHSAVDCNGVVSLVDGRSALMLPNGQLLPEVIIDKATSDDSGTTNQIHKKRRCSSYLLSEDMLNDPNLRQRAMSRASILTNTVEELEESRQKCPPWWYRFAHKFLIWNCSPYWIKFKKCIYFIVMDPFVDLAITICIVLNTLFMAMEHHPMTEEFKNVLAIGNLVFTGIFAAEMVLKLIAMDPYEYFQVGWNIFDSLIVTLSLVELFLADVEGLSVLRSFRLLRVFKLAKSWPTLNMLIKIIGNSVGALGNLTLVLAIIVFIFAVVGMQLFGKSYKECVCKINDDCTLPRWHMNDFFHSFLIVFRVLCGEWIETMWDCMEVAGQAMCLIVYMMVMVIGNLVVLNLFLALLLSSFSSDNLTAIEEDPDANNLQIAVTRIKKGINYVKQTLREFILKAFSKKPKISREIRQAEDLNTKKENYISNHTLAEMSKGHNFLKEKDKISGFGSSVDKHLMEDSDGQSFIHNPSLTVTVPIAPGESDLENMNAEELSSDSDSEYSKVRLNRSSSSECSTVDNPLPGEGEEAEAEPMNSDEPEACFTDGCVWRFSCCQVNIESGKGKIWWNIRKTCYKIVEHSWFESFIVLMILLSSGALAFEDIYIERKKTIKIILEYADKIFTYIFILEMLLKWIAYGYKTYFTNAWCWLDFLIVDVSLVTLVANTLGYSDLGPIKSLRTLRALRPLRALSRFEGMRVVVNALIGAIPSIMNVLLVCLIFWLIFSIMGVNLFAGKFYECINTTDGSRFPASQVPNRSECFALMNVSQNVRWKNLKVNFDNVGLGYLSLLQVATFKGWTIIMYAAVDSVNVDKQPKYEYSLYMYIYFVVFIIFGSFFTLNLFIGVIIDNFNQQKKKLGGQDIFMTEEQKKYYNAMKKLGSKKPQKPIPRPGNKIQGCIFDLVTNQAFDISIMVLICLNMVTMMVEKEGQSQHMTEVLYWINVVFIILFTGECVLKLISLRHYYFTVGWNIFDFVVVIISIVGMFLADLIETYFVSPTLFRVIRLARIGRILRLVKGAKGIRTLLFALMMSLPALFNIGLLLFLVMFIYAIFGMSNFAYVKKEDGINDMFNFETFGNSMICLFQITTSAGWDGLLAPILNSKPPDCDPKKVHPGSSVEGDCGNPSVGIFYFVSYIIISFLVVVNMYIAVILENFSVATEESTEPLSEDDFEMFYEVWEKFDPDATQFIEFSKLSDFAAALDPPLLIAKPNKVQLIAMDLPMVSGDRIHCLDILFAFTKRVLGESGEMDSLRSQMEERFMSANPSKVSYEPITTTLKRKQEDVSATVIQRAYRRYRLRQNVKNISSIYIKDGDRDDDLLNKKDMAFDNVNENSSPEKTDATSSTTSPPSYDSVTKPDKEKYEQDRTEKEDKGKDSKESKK

IC50 [nM]	SMILES
2000 to 5000	CC(C)(N)c1ccc(C(=O)N2CCC3(CC2)Oc2ccccc2-n2c(C#N)ccc23)cc1 [Compound 323]
≤ 2000	COCCOc1ccc(C(=O)N2CCC3(CC2)Oc2ccccc2-c2c3ccn2C)cc1OC [Compound 298]
≤ 2000	COc1cc(OC)c(C(=O)N2CCC3(CC2)Oc2cc(F)ccc2-n2cccc23)cc1CO [Compound 660]
≤ 2000	Cc1cc(C(=O)N2CCC3(CC2)Oc2cc(F)ccc2-n2cccc23)ccc1C(C)(C)O [Compound 52]
> 5000	Cn1ncc2c1-c1ccccc1OC21CCN(C(=O)c2cccc(OC(F)(F)F)c2)CC1 [Compound 619]
≤ 2000	COc1cc(C(=O)N2CCC3(CC2)Oc2cc(Cl)ccc2-n2cccc23)ccc1C(C)(C)C [Compound 529]
≤ 2000	COc1ccc(OC)c(C(=O)N2CCC3(CC2)Oc2cc(Cl)ccc2-n2cccc23)c1 [Compound 189]
≤ 2000	CC(C)Oc1ccc(C(=O)N2CCC3(CC2)Oc2ccccc2-n2c3ccc2S(C)(=O)=O)cc1F [Compound 282]
≤ 2000	CC(C)(O)Cc1ccc(C(=O)N2CCC3(CC2)Oc2ccccc2-n2c(C#N)ccc23)cc1 [Compound 308]
> 5000	N#Cc1ccc2n1-c1ccccc1OC21CCN(C(=O)c2ccc(F)c(Cl)c2)CC1 [Compound 659]
≤ 2000	CC(C)Oc1ccc(C(=O)N2CCC3(CC2)Oc2ccccc2-c2c3cnn2C)cc1 [Compound 464]
≤ 2000	Cc1cc(C(=O)N2CCC3(CC2)Oc2ccccc2-n2c(C#N)ccc23)ccc1S(=O)(=O)C(C)C [Compound 363]
2000 to 5000	CC(C)Oc1ccc(C(=O)N2CCC3(CC2)Oc2ccccc2-c2c3cnn2C)c(C#N)c1 [Compound 40]
≤ 2000	CCc1ccc(C(=O)N2CCC3(CC2)Oc2cc(COC)ccc2-n2cccc23)cc1OC [Compound 669]
≤ 2000	Cc1cc(C(=O)N2CCC3(CC2)Oc2ccccc2-c2[nH]ncc23)ccc1OC(C)C [Compound 500]
≤ 2000	CC(C)(O)c1ccc(C(=O)N2CCC3(CC2)Oc2ccccc2-n2c(C(F)(F)F)ccc23)cc1F [Compound 424]
≤ 2000	CC(=O)NCc1ccc2n1-c1ccccc1OC21CCN(C(=O)c2ccc(OC(C)C)c(C)c2)CC1 [Compound 514]
≤ 2000	CC(C)Oc1ccc(C(=O)N2CCC3(CC2)Oc2ccccc2-c2nn(C)cc23)cc1CO [Compound 276]
> 5000	N#Cc1ccc2n1-c1ccccc1OC21CCN(C(=O)c2ccc(OC[C@H](O)CO)cc2)CC1 [Compound 789]
≤ 2000	CC(C)NS(=O)(=O)c1ccc(C(=O)N2CCC3(CC2)Oc2ccccc2-c2nn(C)cc23)cc1 [Compound 501]
≤ 2000	CC(C)(C)S(=O)(=O)c1ccc(C(=O)N2CCC3(CC2)Oc2ccccc2-n2c(C(F)(F)F)ccc23)cc1 [Compound 483]
≤ 2000	CC(C)n1ncc2c1-c1ccccc1OC21CCN(C(=O)c2ccccc2OC(F)F)CC1 [Compound 705]
≤ 2000	COc1cc(C(=O)N2CCC3(CC2)Oc2ccccc2-n2cccc23)ccc1OCCOC(F)(F)F [Compound 191]
≤ 2000	Cc1ccc2c(c1)OC1(CCN(C(=O)c3ccc(S(C)(=O)=O)c(C)c3)CC1)c1ccc(C#N)n1-2 [Compound 522]
≤ 2000	CCNS(=O)(=O)c1ccc(C(=O)N2CCC3(CC2)Oc2ccccc2-c2c3cnn2C)cc1 [Compound 521]

IC50 [nM]	SMILES
2000 to 5000	Cn1ccc(C(=O)N2CCC3(CC2)Oc2cc(Cl)ccc2-n2c(C(F)(F)F)ccc23)cc1=O [Compound 250]
2000 to 5000	CCc1ccc(C(=O)N2CCC3(CC2)Oc2cc(Cl)ccc2-n2cccc23)cc1O [Compound 489]
≤ 2000	COc1cc(C(=O)N2CCC3(CC2)Oc2ccccc2-n2cccc23)ccc1O[C@@H]1CCC[C@H]1O [Compound 437]
≤ 2000	COc1cc(C(=O)N2CCC3(CC2)Oc2ccccc2-n2c(C(F)(F)F)ccc23)ccc1OCC(N)=O [Compound 176]
≤ 2000	CC(C)Oc1ccc(C(=O)N2CCC3(CC2)Oc2ccccc2-n2c(C#N)ccc23)cc1CO [Compound 559]
≤ 2000	Cn1ncc2c1-c1cc(F)ccc1OC21CCN(C(=O)c2ccccc2OC(F)F)CC1 [Compound 340]
≤ 2000	COc1cc(C(=O)N2CCC3(CC2)Oc2cccnc2-n2cccc23)ccc1O[C@@H]1CCOC1 [Compound 533]
≤ 2000	COc1cc(C(=O)N2CCC3(CC2)Oc2ccccc2-n2cccc23)ccc1OC[C@@H](O)CO [Compound 140]
≤ 2000	CC(C)(O)c1ccc(C(=O)N2CCC3(CC2)Oc2ncccc2-n2c(C(F)(F)F)ccc23)cc1 [Compound 726]
≤ 2000	CC(C)Oc1ccc(C(=O)N2CCC3(CC2)Oc2ccccc2-c2c3cnn2C)c(OC(C)C)c1 [Compound 788]
≤ 2000	CC(C)Oc1ccc(C(=O)N2CCC3(CC2)Oc2ccccc2-c2c3cnn2C)cc1Cl [Compound 135]
≤ 2000	Cc1cc(C(=O)N2CCC3(CC2)Oc2ccccc2-n2cccc23)ccc1C(C)(C)O [Compound 443]
≤ 2000	CC(C)(C)c1ccc(C(=O)N2CCC3(CC2)Oc2cc(Cl)ccc2-n2cccc23)cc1C#N [Compound 220]
≤ 2000	COc1c(Cl)cccc1C(=O)N1CCC2(CC1)Oc1ccccc1-c1c2cnn1C [Compound 673]
≤ 2000	COc1cc(C(=O)N2CCC3(CC2)Oc2ccccc2-n2cccc23)ccc1C(C)(C)OC [Compound 399]
≤ 2000	Cn1ncc2c1-c1ccccc1OC21CCN(C(=O)c2ccccc2OCCO)CC1 [Compound 771]
≤ 2000	Cn1ncc2c1-c1ccccc1OC21CCN(C(=O)c2ccccc2OCC(F)(F)F)CC1 [Compound 593]
≤ 2000	Cn1ncc2c1-c1ccccc1OC21CCN(C(=O)c2cccn3ccnc23)CC1 [Compound 99]
2000 to 5000	COc1cc(S(C)(=O)=O)ccc1C(=O)N1CCC2(CC1)Oc1ccccc1-c1c2cnn1C [Compound 93]
≤ 2000	CC(=O)c1ccc2n1-c1ccccc1OC21CCN(C(=O)c2ccc(S(=O)(=O)C(C)(C)C)cc2)CC1 [Compound 311]
2000 to 5000	Cc1cc(C(=O)N2CCC3(CC2)Oc2ccccc2-n2c(C#N)ccc23)ccc1OC(C)(C)C(=O)O [Compound 408]
≤ 2000	Cc1cc(C(=O)N2CCC3(CC2)Oc2ccccc2-n2c(C(F)(F)F)ccc23)ccc1S(C)(=O)=O [Compound 123]
≤ 2000	COc1ccc(C(=O)N2CCC3(CC2)Oc2ccccc2-c2c3cnn2C)c(OC)c1OC [Compound 355]
≤ 2000	Cc1nc(C(=O)N2CCC3(CC2)Oc2ccccc2-n2c(C(F)(F)F)ccc23)ccc1OC(C)C [Compound 658]
> 5000	N#Cc1ccccc1C(=O)N1CCC2(CC1)Oc1cc(Cl)ccc1-n1cccc12 [Compound 343]

IC50 [nM]	SMILES
2000 to 5000	Cc1cc(C(=O)N2CCC3(CC2)Oc2ccccc2-n2c(CN)ccc23)ccc1OC(C)C [Compound 733]
≤ 2000	COc1ccc(C(=O)N2CCC3(CC2)Oc2ccccc2-c2c3cnn2C)cc1OC [Compound 620]
≤ 2000	COCCOc1ccc(C(=O)N2CCC3(CC2)Oc2cc(Cl)ccc2-n2cccc23)cc1C [Compound 211]
≤ 2000	Cn1ncc2c1-c1ccccc1OC21CCN(C(=O)c2ccc(OCCOC(F)(F)F)c(C#N)c2)CC1 [Compound 26]
> 5000	COc1ccc(C(=O)N2CCC3(CC2)Oc2cc(Cl)ccc2-n2cccc23)cc1S(N)(=O)=O [Compound 736]
≤ 2000	COc1ccc2c(c1)-c1c(cnn1C)C1(CCN(C(=O)c3ccccc3OC(F)F)CC1)O2 [Compound 480]
≤ 2000	Cn1ncc2c1-c1ccccc1OC21CCN(C(=O)c2ccc(OC(F)F)cc2OC(F)F)CC1 [Compound 515]
≤ 2000	Cc1cc(C(=O)N2CCC3(CC2)Oc2cc(F)ccc2-n2cccc23)ccc1OC(C)C [Compound 38]
≤ 2000	Cc1nc2cccc(C(=O)N3CCC4(CC3)Oc3cc(Cl)ccc3-n3cccc34)c2o1 [Compound 393]
2000 to 5000	COc1cc(C(=O)N2CCC3(CC2)Oc2ccccc2-n2cccc23)ccc1OCC(=O)O [Compound 585]
≤ 2000	COc1cc(C(=O)N2CCC3(CC2)Oc2cc(F)ccc2-n2cccc23)ccc1OC[C@@H]1COC(C)(C)O1 [Compound 693]
≤ 2000	Cn1ncc2c1-c1ccccc1OC21CCN(C(=O)c2ccc(S(=O)(=O)C(F)F)cc2)CC1 [Compound 626]
2000 to 5000	Cn1c(C(=O)N2CCC3(CC2)Oc2cc(Cl)ccc2-n2cccc23)cccc1=O [Compound 718]
≤ 2000	COC[C@@H](C)Oc1ccc(C(=O)N2CCC3(CC2)Oc2ccccc2-n2cccc23)cc1C(F)(F)F [Compound 237]
≤ 2000	Cc1cc(C(=O)N2CCC3(CC2)Oc2ccccc2-n2c(C(F)(F)F)ccc23)ccc1O [Compound 732]
≤ 2000	CNS(=O)(=O)c1ccc(C(=O)N2CCC3(CC2)Oc2ccccc2-n2c(C(F)(F)F)ccc23)cc1C [Compound 558]
≤ 2000	Cc1ccc(OC(C)C)c(C(=O)N2CCC3(CC2)Oc2ccccc2-c2c3cnn2C)c1 [Compound 710]
≤ 2000	COc1ccc(F)c(C(=O)N2CCC3(CC2)Oc2cc(Cl)ccc2-n2cccc23)c1 [Compound 475]
≤ 2000	COc1cc(C(=O)N2CCC3(CC2)Oc2ccccc2-n2cccc23)ccc1OC[C@@H](C)OC [Compound 203]
≤ 2000	COc1cc(C(=O)N2CCC3(CC2)Oc2cc(F)ccc2-n2cccc23)ccc1C(C)(C)O [Compound 168]
2000 to 5000	Cc1c(C(=O)N2CCC3(CC2)Oc2ccccc2-c2c3cnn2C)cnn1-c1ccccc1 [Compound 252]
≤ 2000	COc1cc(C(=O)N2CCC3(CC2)Oc2ccccc2-n2cccc23)ccc1OCC(C)(C)OC [Compound 847]
≤ 2000	O=C(c1ccc(S(=O)(=O)CC2CCOC2)cn1)N1CCC2(CC1)Oc1ccccc1-n1c(C(F)(F)F)ccc12 (stereo not drawn) [Compound 877]
≤ 2000	COc1cc(C(=O)N2CCC3(CC2)Oc2ccccc2-c2c3cnn2C)ccc1OC(C)(C)C#N [Compound 758]
≤ 2000	COc1cc(C(=O)N2CCC3(CC2)Oc2cc(Cl)ccc2-n2cccc23)ccc1F [Compound 63]
